From patent publication US11267844B2, “Spirothietane nucleosides” (Janssen Pharmaceutica NV, priority 2017, dated 2022)
Read-outs that look alike come from different tables or passages of the source.

What was measured:
[1] = test system: HCV replicon (NS3-NS5B regions of HCV type 1b) in Huh-7 luc/neo cells; assay: HCV replicon assay (Huh-Luc cells, luciferase read-out); assay type: cell-based; conditions: Hepatitis C virus
Excerpt: The compounds of Formula (I) were examined for activity against HCV in a cellular assay. […] The cellular assay was based on a bicistronic expression construct, as described by Lohmann et al. (1999) Science vol. 285 pp. 110-113 with modifications described by Krieger et al. (2001) Journal of Virology 75: 4614-4624, in a multi-target screening strategy.
In essence, the method was as follows. The assay utilized the stably transfected cell line Huh-7 luc/neo (hereafter referred to as Huh-Luc). This cell line harbors an RNA encoding a bicistronic expression construct comprising the wild type NS3-NS5B regions of HCV type 1b translated from an internal ribosome entry site (IRES) from encephalomyocarditis virus (EMCV), preceded by a reporter portion (FfL-luciferase), and a selectable marker portion (neo^R, neomycine phosphotransferase). The construct is bordered by 5′ and 3′ NTRs (non-translated regions) from HCV genotype 1b. Continued culture of the replicon cells in the presence of G418 (neo^R) is dependent on the replication of the HCV-RNA. The stably transfected replicon cells that express HCV-RNA, which replicates autonomously and to high levels, encoding inter alia luciferase, were used for screening the antiviral compounds.
The replicon cells were plated in 384-well plates in the presence of the test and control compounds which were added in various concentrations. Following an incubation of three days, HCV replication was measured by assaying luciferase activity (using standard luciferase assay substrates and reagents and a Perkin Elmer ViewLux™ ultraHTS microplate imager). Replicon cells in the control cultures have high luciferase expression in the absence of any inhibitor. The inhibitory activity of the compound on luciferase activity was monitored on the Huh-Luc cells, enabling a dose-response curve for each test compound. EC50 values were then calculated, which value represents the amount of the compound required to decrease the level of detected luciferase activity by 50%, or more specifically, the ability of the genetically linked HCV replicon RNA to replicate.

[2] = test system: DENV-2/16681/eGFP; assay: Antiviral activity against DENV-2/16681/eGFP in Huh-7 cells (eGFP read-out); assay type: cell-based, dengue virus serotype 2; conditions: Dengue virus, DENV2, Huh-7, 72 h, read-out: DENV Huh-7 (EC50, μM)
Procedure: (§1) The antiviral activity of the compounds against DENV-2/16681/eGFP was determined in a phenotypic antiviral assay with eGFP read-out, a measure for the amount of virus (TV-WI-03476 and TV-WI-05601). In parallel, cytotoxicity of the compounds was measured using ATPLite™ (PerkinElmer, Waltham, Mass.). The assay was performed in two different cell-lines (Vero and Huh-7) to exclude cell-specific activity of the compound.
(§2) DENV-2/16681/eGFP was produced by the transfection of the in vitro transcribed RNA of plasmid pFK-DVs-G2A (purchased from Prof. R. Bartenschlager, University of Heidelberg, Germany; FIG. 1) into Huh-7 cells (human hepatocarcinoma cells; kindly provided by Prof. R. Bartenschlager) (TV-WI-04247).
(§3) In brief, 2,500 Vero cells (African green monkey kidney cells; European Collection of Cell Cultures [ECACC], Porton Down, UK; catalogue number 84113001) or Huh-7 cells were seeded in 384-well plates containing 9-fold serially diluted test compound. After incubating 24 h at 37° C., Vero and Huh-7 cells were infected with DENV-2/16681/eGFP at a multiplicity of infection (MOI) of 1 and 5, respectively. After 3 days of incubation at 37° C., the viral replication was quantified by measuring eGFP expression in the cells with a laser microscope. The 50% effective concentration (EC50) was defined as the concentration inhibiting 50% of the eGFP expression of the compound-treated DENV-infected cells vs. the untreated DENV-infected cells (virus control), using the cell controls as baseline of eGFP signal (i.e., 0% signal). In the same way, the 90% effective concentration (EC90) was calculated.

[3] = Cytotoxicity in Huh-7 cells (ATPlite cell viability); assay type: cell-based; conditions: human, Table 1A, read-out: Tox Huh-7 (CC50)
Procedure: as §1
(§4) In parallel, cytotoxic effects of the compounds (50% cytotoxic concentration [CC50] and 90% cytotoxic concentration [CC90]) were evaluated using an ATPlite cell viability luminescence assay (PerkinElmer). To this end, ATPlite was added to the wells according to the supplier's instructions once the eGFP read-out was performed, and the luminescence was measured; a measure directly relating to the number of viable cells. The CC50 was determined as the 50% inhibitory concentration for the luminescent signal in compound-treated DENV-infected cells compared to untreated DENV-infected cells (virus control), using a medium control as baseline of emitted light (i.e., 0% signal).

[4] = test system: DENV-2/16681/eGFP; assay: Antiviral activity against DENV-2/16681/eGFP in Vero cells (eGFP read-out); assay type: cell-based, dengue virus serotype 2; conditions: Dengue virus, DENV2, Vero, 72 h, read-out: DENV Vero (EC50, μM)
Procedure: as §1, §2, §3

[5] = Cytotoxicity in Vero cells (ATPlite cell viability); assay type: cell-based; conditions: African green monkey, Table 1A, read-out: Tox Vero (CC50)
Procedure: as §1, §4

[6] = test system: CHIKV strain S27; assay: CHIKV CPE inhibition assay in Huh7 cells; assay type: cell-based; conditions: Chikungunya virus
Procedure: The antiviral activities of the nucleoside analogs against chikungunya virus (CHIKV) were tested using a cell-based high-throughput CPE (cytopathic effect) inhibition assay. In this assay, CHIKV strain S27 and Huh7 cells (a human hepatoma cell line) were employed. The test compounds were prepared in a 9-point fourfold serial dilutions and plated in a 384-well plate. Then, a density of 8000 cells/well and an MOI (Multiplicity of Infection) of 0.25 CHIKV were added to each well. The plates were incubated at 37° C./5% CO2 for 2 days. The antiviral activity of a test compound was measured by addition of an ATPLite™ 1-step kit (PerkinElmer), which measures the ATP levels in live cells protected from viral CPE by a test compound. The cytotoxicity of test compounds was measured in parallel in the absence of virus infection. The readout is luminescence.

[7] = Huh-7, 72 h, Table 1A, Huh-Luc replicon cells, 3 days, read-out: HCV Huh-7 (EC50)
[8] = Huh-7, 48 h, Table 1A, Huh7 cells, MOI 0.25, 2 days, read-out: CHIKV Huh-7 (EC50)
[9] = Huh-7, 72 h, read-out: HCV Huh-7 (EC50, μM)
[10] = Huh-7, 48 h, read-out: CHIKV Huh-7 (EC50, μM)
[11] = Huh-7, Table 1C, comparison with spiro-oxetane derivatives, read-out: HCV, Huh-7 (EC50)
[12] = Huh-7, Table 1C, comparison with spiro-oxetane derivatives, read-out: CHIKV, Huh7 (EC50)

CC(C)OC(=O)C(C)NP(=O)(OC[C@@]1(N=[N+]=[N-])O[C@@H](n2ccc(=O)[nH]c2=O)[C@@]2(CCS2)[C@@H]1O)Oc1ccccc1 (stereo in doubt) [Compound 45, isopropyl (2R)-2-[[[(4R,5R,6R,8R)-6-azido-8-(2,4-dioxopyrimidin-1-yl)-5-hydroxy-7-oxa-1-thiaspiro[3.4]octan-6-yl]methoxy-phenoxy-phosphoryl]amino]propanoate]
EC50 [1, 7]: 5 µM
EC50 [2]: 62 µM
CC50 [3]: > 100 µM
EC50 [4]: 62 µM
CC50 [5]: > 100 µM
EC50 [6, 8]: > 100 µM

O=c1ccn([C@@H]2O[C@](F)(COP(=O)(Oc3ccccc3Cl)OC3CCCC3)[C@@H](O)[C@]23CCS3)c(=O)[nH]1 (stereo partly drawn) [Compound 34, 2-chlorophenyl cyclopentyl (((4R,5R,7S,8R)-5-(2,4-dioxo-3,4-dihydropyrimidin-1(2H)-yl)-7-fluoro-8-hydroxy-6-oxa-1-thiaspiro[3.4]octan-7-yl)methyl) phosphate]
EC50 [1, 9]: > 100 µM
EC50 [2]: 53 µM
CC50 [3]: > 100 µM
EC50 [4]: 35 µM
CC50 [5]: > 100 µM
EC50 [6, 10]: > 100 µM

CC(C)OC(=O)[C@H](C)NP(=O)(OC[C@H]1O[C@@H](n2ccc(=O)[nH]c2=O)[C@@]2(CCO2)[C@@H]1O)Oc1ccccc1 (mixture of isomers) [reference compound]
EC50 [1, 11]: 21 µM
EC50 [6, 12]: > 100 µM

CC(C)OC(=O)[C@H](C)NP(=O)(OC[C@@]1(F)O[C@@H](n2ccc(N)nc2=O)[C@@]2(CCS2)[C@@H]1O)Oc1ccccc1 (stereo partly drawn) [Compound 31, (2S)-isopropyl 2-(((((4R,5R,7S,8R)-5-(4-amino-2-oxopyrimidin-1(2H)-yl)-7-fluoro-8-hydroxy-6-oxa-1-thiaspiro[3.4]octan-7-yl)methoxy)(phenoxy)phosphoryl)amino)propanoate]
EC50 [1, 7]: 11 µM
EC50 [2]: 36 µM
CC50 [3]: > 100 µM
EC50 [4]: > 100 µM
CC50 [5]: > 100 µM
EC50 [6, 8]: > 100 µM

O=c1ccn([C@@H]2O[C@](F)(CO)[C@@H](O)[C@]23CCS3)c(=O)[nH]1 [Compound 22, 1-((4R,5R,7S,8R)-7-fluoro-8-hydroxy-7-(hydroxymethyl)-6-oxa-1-thiaspiro[3.4]octan-5-yl)pyrimidine-2,4(1H,3H)-dione]
EC50 [1, 7]: 84 µM
EC50 [2]: 69 µM
CC50 [3]: > 100 µM
EC50 [4]: 63 µM
CC50 [5]: > 100 µM
EC50 [6, 10]: > 100 µM

CC(C)C(=O)OC[C@H]1O[C@@H](n2ccc(N)nc2=O)[C@@]2(CCS2)[C@@H]1OC(=O)C(C)C [Compound 11, (4R,5R,7R,8R)-5-(4-amino-2-oxopyrimidin-1(2H)-yl)-7-((isobutyryloxy)methyl)-6-oxa-1-thiaspiro[3.4]octan-8-yl isobutyrate]
EC50 [1, 7]: > 100 µM
EC50 [2]: > 100 µM
CC50 [3]: > 100 µM
EC50 [4]: > 100 µM
CC50 [5]: > 100 µM
EC50 [6, 10]: > 100 µM

CC(C)OC(=O)[C@H](C)NP(=O)(OC[C@H]1O[C@@H](n2ccc(=O)[nH]c2=O)[C@@]2(CCS2)[C@@H]1O)Oc1ccccc1 (stereo partly drawn) [Compound 9, (2S)-isopropyl 2-(((((4R,5R,7R,8R)-5-(2,4-dioxo-3,4-dihydropyrimidin-1(2H)-yl)-8-hydroxy-6-oxa-1-thiaspiro[3.4]octan-7-yl)methoxy)(phenoxy)phosphoryl)amino)propanoate]
EC50 [1, 7]: 1 µM
EC50 [1, 11]: 1 µM
EC50 [2]: 9 µM
CC50 [3]: > 100 µM
EC50 [4]: > 100 µM
CC50 [5]: > 100 µM
EC50 [6, 8]: 18 µM
EC50 [6, 12]: 18 µM

CC(C)OC(=O)[C@H](C)NP(=O)(OC[C@@]1(F)O[C@@H](n2ccc(=O)[nH]c2=O)[C@@]2(CCO2)[C@@H]1O)Oc1ccccc1 (mixture of isomers) [reference compound]
EC50 [1, 11]: > 100 µM
EC50 [6, 12]: > 100 µM

O=c1ccn([C@@H]2O[C@]3(F)COP(=O)(OC4CCCC4)O[C@H]3[C@]23CCS3)c(=O)[nH]1 (stereo partly drawn) [Compound 35, 1-((2′R,4aS,6R,7aR)-2-(cyclopentyloxy)-4a-fluoro-2-oxidotetrahydrospiro[furo[3,2-d][1,3,2]dioxaphosphinine-7,2′-thietan]-6-yl)pyrimidine-2,4(1H,3H)-dione]
EC50 [1, 7]: 25 µM
EC50 [2]: > 100 µM
CC50 [3]: > 100 µM
EC50 [4]: > 100 µM
CC50 [5]: > 100 µM
EC50 [6, 10]: 72 µM

CC(C)OP(=O)(OC[C@@]1(F)O[C@@H](n2ccc(=O)[nH]c2=O)[C@@]2(CCS2)[C@@H]1O)Oc1ccc(Cl)cc1 (stereo partly drawn) [Compound 37, 4-chlorophenyl (((4R,5R,7S,8R)-5-(2,4-dioxo-3,4-dihydropyrimidin-1(2H)-yl)-7-fluoro-8-hydroxy-6-oxa-1-thiaspiro[3.4]octan-7-yl)methyl) isopropyl phosphate]
EC50 [1, 9]: > 100 µM
EC50 [2]: > 100 µM
CC50 [3]: > 100 µM
EC50 [4]: > 100 µM
CC50 [5]: > 100 µM
EC50 [6, 10]: > 100 µM

CCCCOC(=O)[C@H](C)NP(=O)(OC[C@@]1(F)O[C@@H](n2ccc(=O)[nH]c2=O)[C@@]2(CCS2)[C@@H]1O)Oc1ccccc1 (stereo partly drawn) [Compound 25, (2S)-butyl 2-(((((4R,5R,7S,8R)-5-(2,4-dioxo-3,4-dihydropyrimidin-1(2H)-yl)-7-fluoro-8-hydroxy-6-oxa-1-thiaspiro[3.4]octan-7-yl)methoxy)(phenoxy)phosphoryl)amino)propanoate]
EC50 [1, 7]: 2 µM
EC50 [2]: 4 µM
CC50 [3]: > 100 µM
EC50 [4]: 35 µM
CC50 [5]: > 100 µM
EC50 [6, 8]: 3 µM

O=c1ccn([C@@H]2O[C@H](CO)[C@@H](O)[C@]23CCS3)c(=O)[nH]1 [Compound 7, 1-((4R,5R,7R,8R)-8-hydroxy-7-(hydroxymethyl)-6-oxa-1-thiaspiro[3.4]octan-5-yl)pyrimidine-2,4(1H,3H)-dione]
EC50 [1, 7]: > 100 µM
CC50 [3]: > 100 µM
EC50 [4]: > 100 µM
CC50 [5]: > 100 µM
